Source: a compilation of properties of binary mixtures (doi:10.1016/j.molliq.2008.06.014)

Experiment: xn = mol fraction of the nth substance listed
Settings: 101 kPa

NCCO + CCCC[n+]1ccn(C)c1.F[P-](F)(F)(F)(F)F
x1 = 1
Settings | electrical conductivity [S/m] | viscosity [mPa·s]
298.15 K | 0.0023 | 18.6
303.15 K | 0.0027 | 15
308.15 K | 0.0032 | 11.9
313.15 K | 0.0036 | 9.9
323.15 K | 0.0069 | 7

CN(C)CCO + CCCC[n+]1ccn(C)c1.F[P-](F)(F)(F)(F)F
Settings | electrical conductivity [S/m] | viscosity [mPa·s]
288.15 K, x1 = 0.1221 | 0.12 | 213
288.15 K, x1 = 0.2143 | 0.14 | 159
288.15 K, x1 = 0.4405 | – | 81
288.15 K, x1 = 0.4637 | 0.179 | –
288.15 K, x1 = 0.605 | 0.206 | 46
288.15 K, x1 = 0.9128 | 0.135 | 9.5
288.15 K, x1 = 1 | 0.082 | 5
293.15 K, x1 = 0.1221 | 0.161 | 157
293.15 K, x1 = 0.3182 | 0.203 | 88
293.15 K, x1 = 0.3764 | 0.226 | –
293.15 K, x1 = 0.605 | 0.264 | 35
293.15 K, x1 = 0.709 | 0.266 | 23
293.15 K, x1 = 0.9128 | 0.16 | 8
293.15 K, x1 = 1 | 0.091 | 4.3
298.15 K, x1 = 0.2143 | 0.242 | 88
298.15 K, x1 = 0.3182 | 0.263 | 66
298.15 K, x1 = 0.3764 | 0.285 | –
298.15 K, x1 = 0.4405 | – | 46
298.15 K, x1 = 0.5166 | 0.322 | 36
298.15 K, x1 = 0.605 | 0.333 | 27
298.15 K, x1 = 0.709 | 0.332 | 18.2
298.15 K, x1 = 0.8063 | 0.297 | 11.8
303.15 K, x1 = 0.1221 | 0.272 | 88
303.15 K, x1 = 0.2143 | 0.311 | 68
303.15 K, x1 = 0.3182 | 0.341 | 51
303.15 K, x1 = 0.4637 | 0.389 | –
303.15 K, x1 = 0.5166 | 0.403 | 28
303.15 K, x1 = 0.605 | 0.414 | 21.4
303.15 K, x1 = 0.709 | 0.404 | 14.7
303.15 K, x1 = 0.9128 | 0.218 | 5.6
303.15 K, x1 = 1 | 0.11 | 3.2
308.15 K, x1 = 0.1221 | 0.348 | 67
308.15 K, x1 = 0.2143 | 0.396 | 52
308.15 K, x1 = 0.3182 | 0.431 | 39
308.15 K, x1 = 0.3764 | 0.461 | –
308.15 K, x1 = 0.5166 | 0.502 | 22.4
308.15 K, x1 = 0.605 | 0.51 | 17
308.15 K, x1 = 0.709 | 0.49 | 11.9
308.15 K, x1 = 0.8063 | 0.423 | 8
308.15 K, x1 = 0.9128 | 0.252 | 4.8
308.15 K, x1 = 1 | 0.12 | 2.9
313.15 K, x1 = 0.1221 | 0.434 | 53
313.15 K, x1 = 0.2143 | 0.491 | 41
313.15 K, x1 = 0.3182 | 0.531 | 31
313.15 K, x1 = 0.3764 | 0.564 | –
313.15 K, x1 = 0.4405 | – | 22.6
313.15 K, x1 = 0.4637 | 0.589 | –
313.15 K, x1 = 0.5166 | 0.606 | 18.1
313.15 K, x1 = 0.709 | 0.583 | 9.8
313.15 K, x1 = 0.8063 | 0.494 | 6.7
313.15 K, x1 = 0.9128 | 0.288 | 4.1
313.15 K, x1 = 1 | 0.131 | 2.5
318.15 K, x1 = 0.1221 | 0.531 | 42
318.15 K, x1 = 0.2143 | 0.599 | 33
318.15 K, x1 = 0.3182 | 0.648 | 25
318.15 K, x1 = 0.4405 | – | 18.6
318.15 K, x1 = 0.4637 | 0.713 | –
318.15 K, x1 = 0.5166 | 0.727 | 14.9
318.15 K, x1 = 0.605 | 0.726 | 11.6
318.15 K, x1 = 0.709 | 0.682 | 8.3
318.15 K, x1 = 0.8063 | 0.571 | 5.7
318.15 K, x1 = 0.9128 | 0.326 | 3.6
318.15 K, x1 = 1 | 0.141 | 2.27
323.15 K, x1 = 0.1221 | 0.63 | 35
323.15 K, x1 = 0.2143 | 0.712 | 28
323.15 K, x1 = 0.3182 | 0.767 | 21.2
323.15 K, x1 = 0.4405 | – | 15.7
323.15 K, x1 = 0.4637 | 0.834 | –
323.15 K, x1 = 0.605 | 0.841 | 9.9
323.15 K, x1 = 0.709 | 0.784 | 7.1
323.15 K, x1 = 0.8063 | 0.648 | 5
323.15 K, x1 = 0.9128 | 0.363 | 3.2
